# Laboratory results reported in paper PMC7173930, “EAT-18 is an essential auxiliary protein interacting with the non-alpha nAChR subunit EAT-2 to form a functional receptor” (PLoS Pathogens, 2020).
# “And” between values parts separate entries of the source, which are not always exact repeats. Equal entries are not always repeated. Where two headings read alike, the source gives them in different places.
# How the values were obtained:
# [1] = target: T1, Cel-EAT-2 and Cel-EAT-18c nAChR (Caenorhabditis elegans, UniProt Q9U298); assay: Two-electrode voltage-clamp of Cel-EAT-2 + Cel-EAT-18c nAChR expressed in Xenopus oocytes; format: cell-based; settings: for Emax at 100 µM: read-out: current response normalized to the control 100 μM ACh current (Imax)
# T1 sequence (Q9U298 22-474): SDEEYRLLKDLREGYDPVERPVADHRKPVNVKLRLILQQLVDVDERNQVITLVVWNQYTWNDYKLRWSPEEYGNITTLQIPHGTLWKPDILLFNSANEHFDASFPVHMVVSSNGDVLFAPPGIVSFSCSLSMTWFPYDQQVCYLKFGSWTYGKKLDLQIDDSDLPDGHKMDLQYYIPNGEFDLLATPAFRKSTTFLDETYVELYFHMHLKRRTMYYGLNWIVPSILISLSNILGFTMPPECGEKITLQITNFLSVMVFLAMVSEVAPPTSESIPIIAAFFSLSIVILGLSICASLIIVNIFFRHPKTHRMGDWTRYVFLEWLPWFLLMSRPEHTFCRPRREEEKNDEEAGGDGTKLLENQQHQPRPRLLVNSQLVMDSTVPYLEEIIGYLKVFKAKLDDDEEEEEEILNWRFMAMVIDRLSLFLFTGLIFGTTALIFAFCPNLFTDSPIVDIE
# [2] = test system: nAChRs expressed in the pharynx of A. suum; assay: tissue or blood; format: cell-based; settings: for Emax: read-out: % change in membrane conductance (δG) normalized to the ACh δG
# Experimental: A. suum pharyngeal dissections and electrophysiology recordings were adapted from Martin [49]. Briefly, pharynx was dissected out from the head region of the worm and mounted on Sylgard (Sigma-Aldrich Inc., USA)—lined in a double jacketed bath chamber maintained at 28°C. The muscle layer surrounding the anterior 3rd of the pharynx was preserved for anchoring. The intestine attached to the posterior end of the pharynx was used for stretching and pinning down. The preparation was continuously perfused with calcium-free Ascaris Perienteric Fluid-Ringer (calcium-free APF-Ringer) composition (mM): NaCl 23, Na-acetate 110, KCl 24, MgCl2 11, glucose 11, and HEPES 5; NaOH or acetic acid was added to adjust the pH to 7.6. […] The rate of localized perfusion was 3.5–4 ml min^−1 through a 20-gauge needle, which was placed directly above the recording region of the pharynx. […] We used 3 M potassium acetate in our micropipettes to get the final resistances of 4–7 MΩ for the voltage sensing and 0.5–1 MΩ for the current injecting electrode for current-clamp recordings. The current-injecting electrode injected hyperpolarizing step currents of −1000 nA for 500 ms at 0.3 Hz.
# We constructed the sigmoidal concentration-response plots by fitting the data by nonlinear regression to determine the pEC50 and the maximal response (Rmax). Extra sum of squares F-test was used to test statistical differences between pEC50, slope, and maximal response. The significance levels were set to P<0.05.
# In applications containing arecoline and pilocarpine, we used mecamylamine, a nAChR antagonist (30µM) to inhibit nAChRs and to allow only mAChR activation.
# Asu-EAT-2 nAChR = Asu-EAT-2 nAChR (Ascaris suum, UniProt F1L9Y6); assay: cell-based; format: cell-based, A. suum
# [3] = test system: A. suum muscarinic receptor; parameters: method as in earlier work; settings: all used at 100 µM; ref 1 Kimber M.J. et al. Int J Parasitol 39: 1215-1222 (2009); cited from earlier work
# [4] = target: T2, Cel-EAT-2 and Cel-EAT-18c receptor (Cel-EAT-2 nAChR) (Caenorhabditis elegans, UniProt Q9U298); assay: Two-electrode voltage-clamp of oocytes expressing Cel-EAT-2 with Cel-EAT-18c; agonist peak currents normalized to 100 uM ACh and fitted to the Hill equation.; format: cell-based, Xenopus laevis oocytes; settings: n = 6; read-out: pEC50 (mean±SEM) (converted)
# T2 construct: homomeric EAT-2 co-expressed with Cel-EAT-18c in Xenopus laevis oocytes
# Experimental: Oocyte injections and two-electrode electrophysiology recordings were performed as previously described [48].
# GraphPad Prism 8.0 software (GraphPad Software Inc., USA) was used to analyze the data. […] We used One-way analysis of variance (ANOVA) and Extra sum of squares F-test to test statistical differences (statistically different if p<0.05). Tukeys’ multiple comparison was used as a post-hoc test.
# [5] = read-out: current response normalized to the control 100 μM ACh current
# [6] = read-out: current response normalized to the control 100 μM ACh current, mean±SEM, n≥5
# [7] = agonist concentration-response, mean±SEM
# Asu-EAT-2 nAChR, sequence (F1L9Y6 entry or part of it): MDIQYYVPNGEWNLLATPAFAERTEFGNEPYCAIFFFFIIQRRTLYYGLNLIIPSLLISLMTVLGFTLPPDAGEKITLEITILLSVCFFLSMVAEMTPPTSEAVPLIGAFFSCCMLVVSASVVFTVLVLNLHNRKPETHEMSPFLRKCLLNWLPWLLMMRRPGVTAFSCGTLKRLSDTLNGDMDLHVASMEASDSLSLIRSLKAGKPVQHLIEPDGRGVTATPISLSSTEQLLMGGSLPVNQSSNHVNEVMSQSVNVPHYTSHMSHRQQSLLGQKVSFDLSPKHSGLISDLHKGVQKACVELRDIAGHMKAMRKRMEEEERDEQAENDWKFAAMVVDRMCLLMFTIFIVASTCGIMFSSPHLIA
# Asu-EAT-2 nAChR, sequence (F1L1D9 entry or part of it, further chain): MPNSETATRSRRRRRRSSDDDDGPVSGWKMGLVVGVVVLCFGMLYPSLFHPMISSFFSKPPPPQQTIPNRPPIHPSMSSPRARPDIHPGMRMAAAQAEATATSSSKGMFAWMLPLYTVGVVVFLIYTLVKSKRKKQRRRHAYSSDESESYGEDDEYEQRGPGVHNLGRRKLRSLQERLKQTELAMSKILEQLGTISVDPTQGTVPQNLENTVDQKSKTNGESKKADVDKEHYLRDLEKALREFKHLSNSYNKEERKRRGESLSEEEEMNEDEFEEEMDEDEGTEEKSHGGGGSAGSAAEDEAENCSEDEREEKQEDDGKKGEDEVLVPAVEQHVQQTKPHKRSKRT
# T2 sequence (Q86DB4 entry or part of it, one chain of several): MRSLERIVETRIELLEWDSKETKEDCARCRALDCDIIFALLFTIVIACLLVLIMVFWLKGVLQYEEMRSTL
compound,measurement,setting,value
"CO[C@H]1CC=C2CCN3CCC4=C(CC(=O)OC4)[C@]23C1 [DHβE, Dihydro-β-erythroidine]",effect on sensitivity and efficacy of the receptor for ACh,[1],not altered
same,Imax of ACh concentration-response in the presence of antagonist,[1]; antagonist 30 μM,91.1±4.1%
same,% inhibition of 100 μM ACh membrane conductance (δG),[2],17.9±5.0%
same,maximal response (δG) of ACh in the presence of antagonist,"[2]; DHβE 30 μM, mean±SE",89.7±3.0 μS
same,mean % inhibition of ACh (100 μM) mediated currents,Asu-EAT-2 nAChR,66±8.4%
CC[C@@H]1C(=O)OC[C@@H]1Cc1cncn1C [pilocarpine],"normalized response (δG) to muscarinic agonists, control ACh = 100%","[2]; 100 μM, 10 s application, in the presence of mecamylamine 30 μM, mean±SE, n=4",0.7±0.7%
same,response relative to ACh (rank order series of muscarinic agonists),[3],14%
CC(C[N+](C)(C)C)OC(N)=O (stereo not drawn) [bethanechol],response relative to ACh (rank order series of muscarinic agonists),[3],58%
CNC1(C)C2CCC(C2)C1(C)C (stereo not drawn) [mecamylamine],% inhibition of 100 μM ACh membrane conductance (δG),[2],92% and 92.2±1.9%
α-cotinine,current response normalized to the control 100 μM ACh current (Imax),"[1]; agonist 100 μM, mean±SEM, n≥6",0.0±0.0%
C#Cc1cncc([C@@H]2CCCN2C)c1 [SIB 1508Y],Emax at 100 µM,"[1]; agonist 100 μM, mean±SEM, n≥6",0%
α-bungarotoxin [α-BTX],Imax of ACh concentration-response in the presence of antagonist,[1],86.0±2.4%
same,effect on sensitivity and efficacy of the receptor for ACh,[1],not altered
C[N+](C)(C)CCCCCC[N+](C)(C)C [hexamethonium],% inhibition of 100 μM ACh membrane conductance (δG),[2],26.8±1.9%
O=c1cccc2n1C[C@@H]1CNC[C@H]2C1 [cytisine],Emax at 100 µM,[1],0%
same,Emax,[2]; Ascaris suum,71.2 ± 5%
same,Emax,Asu-EAT-2 nAChR; [5],81 ± 5.2%
C[N+](C)(CCOc1ccccc1)Cc1ccccc1 [bephenium],current response normalized to the control 100 μM ACh current (Imax),"[1]; agonist 100 μM, mean±SEM, n≥6",did not activate the receptor
same,Emax at 100 µM,"[1]; agonist 100 μM, mean±SEM, n≥6",0%
same,Emax,[2]; Ascaris suum,7.2 ± 3.5%
same,current response normalized to the control 100 μM ACh current,"Asu-EAT-2 nAChR; mean±SEM, n≥5",failed to activate the receptor
same,Emax,Asu-EAT-2 nAChR; [6],0.1 ± 0.1%
CCCC(=O)OCC[N+](C)(C)C [butyrylcholine],current response normalized to the control 100 μM ACh current (Imax),"[1]; agonist 100 μM, mean±SEM, n≥6",50.0±5.0%
same,pEC50,"[1]; agonist concentration-response, 100 μM ACh as internal standard, mean±SEM",3.9±0.1
same,Hill slope (nH),[1]; [7],2.8±1.8
same,EC50,[4],126 µM
CN1CCCN=C1/C=C/c1cccc(O)c1 [oxantel],current response normalized to the control 100 μM ACh current (Imax),"[1]; agonist 100 μM, mean±SEM, n≥6",11 ± 1.3%
same,Emax at 100 µM,"[1]; agonist 100 μM, mean±SEM, n≥6",11 ± 1.3%
same,Emax,[2]; Ascaris suum,0%
same,Emax,Asu-EAT-2 nAChR; [6],3 ± 1.3%
CN1C(=O)[C@]23C[C@H]4C(C)(C)[C@]5(CNc6c5ccc5c6OC=CC(C)(C)O5)C[C@@]41CN2CC[C@@]3(C)O [derquantel],Imax of ACh concentration-response in the presence of antagonist,[1]; antagonist 10 μM,68.4±2.1%
same,% inhibition of 100 μM ACh membrane conductance (δG),[2],30.6±7.0%
same,mean % inhibition of ACh (100 μM) mediated currents,Asu-EAT-2 nAChR,72.0±3.4%
CN1CCCN=C1/C=C/c1cccs1 [pyrantel],Emax at 100 µM,"[1]; agonist 100 μM, mean±SEM, n≥6",0%
same,Emax,[2]; Ascaris suum,0%
same,current response normalized to the control 100 μM ACh current,Asu-EAT-2 nAChR,failed to activate the receptor
same,Emax,Asu-EAT-2 nAChR; [5],0%
C[N+](C)(CCOc1ccccc1)Cc1cccs1 [thenium],Emax,[2]; Ascaris suum,6.1 ± 1.5%
same,Emax,Asu-EAT-2 nAChR; [6],0%
"COc1cc2c3cc1Oc1cc(ccc1O)C[C@@H]1c4c(cc(OC)c(O)c4Oc4ccc(cc4)C[C@@H]3N(C)CC2)CC[N+]1(C)C [d-TC, d-tubocurarine]",inhibition at 30 µM,"[1]; read-out: reduction (inhibition) in the mean ACh response, 30 μM d-tubocurarine",~98%
same,% inhibition of 100 μM ACh membrane conductance (δG),[2],94.6±0.2%
same,mode of antagonism of the pharyngeal ACh response,"[2]; antagonist 10 μM, ACh pEC50 unchanged, maximal response inhibited",non-competitive antagonists
same,maximal response (δG) of ACh in the presence of antagonist,"[2]; antagonist 10 μM, mean±SE",23.0±3.0 μS
"CC(=O)OCC[N+](C)(C)C [ACh, acetylcholine]",Hill slope (nH),[1]; [7],1.9±0.3 and 1.9 ± 0.2
same,Emax,[2]; Ascaris suum,100%
same,EC50,"[2]; Ascaris suum, concentration-conductance curve, 1-1000 μM applied for 10 s, mean±SEM, read-out: pEC50 (converted)",10 µM
same,maximal response,[2]; agonist concentration-response curve,105.3 ± 2.5 μS
same,Hill slope (nH),"[2]; concentration-conductance curve, mean±SEM",1.8±0.3
same,times more potent on Asu-EAT-2 nAChR compared to Cel-EAT-2,Asu-EAT-2 nAChR,≈ 9 times
same,Hill slope (nH),"Asu-EAT-2 nAChR; ACh concentration-response, mean±SEM, n=6",3.5 ± 1.1
same,Emax at 100 µM,Asu-EAT-2 nAChR; [6],100%
